# Measured values published in US8247170B2, “Detection of penicillin tolerance in Group B Streptococcus: single nucleotide polymorphisms in penicillin binding protein 4” (priority 2008, dated 2012).
# Tested on: GBS clinical isolates and laboratory strains
# Assay: Macrobroth penicillin tolerance assay
# Assay type: cell-based, Group B Streptococcus
# Details: then 24 h drug-free; for 100xMIC, regrowth O.D.600: Penicillin G 100×MIC90 48 h; for 300xMIC, regrowth O.D.600: Penicillin G 300×MIC90 48 h; for 10xMIC, regrowth O.D.600: Penicillin G 10×MIC90 48 h; for 30xMIC, regrowth O.D.600: Penicillin G 30×MIC90 48 h
# Experimental: Using this modified penicillin tolerance assay, tolerant strains from the GBS clinical isolates can be more efficiently identified. In this macrobroth culture format, 25 ml THB broth GBS cultures (containing clinical isolates) were grown to an early exponential growth phase (˜0.2 OD600). Cell cultures (6 ml) were collected and divided into 4 culture tubes. […] Cell cultures were shaken at 150 rpm in order to maintain cells in suspension for proper growth. Subcultures (1/20 dilution) of cells were put into fresh THB containing […] Penase (i.e., 100 μl of Penase 10,000 U stock into 4 ml THB culture). Subcultures were allowed to grow for 24 hours at 37° C. Cell growth was monitored by OD (see Example 2).
# (I) Bacterial Strains and Culture Conditions. GBS strains A909 (serotype IA), 515 (serotype IA), NEM316 (serotype III), COHI (serotype III), 2603V/R (serotype V) and O90R (non-typable) were used in this study. E. coli Top10 cells were used for the recombination experiments. GBS was cultured in Todd Hewitt broth (THB) or Tryptic Soy 5% sheep blood (TS) media and E. coli in Luria-broth (LB) medium or agar. Antibiotics were used at the following concentrations: for GBS—penicillin G (MIC90 0.06 μg ml^−1), ampicillin (MIC90 0.12 μg ml^−1), vancomycin (MIC90 2 μg ml^−1), cefazolin (MIC90 1 μg ml^−1) and chloramphenicol (5 μg ml^−1); for E. coli—ampicillin (50 μg ml^−1) and chloramphenicol (5 μg ml^−1). Both GBS and E. coli cultures were grown at 37° C. (II) Tolerance Using the MBC:MIC Ratio Method. Three GBS laboratory strains (i.e., A909, NEM316, and O90R) were cultured overnight for 18 h at 37° C. in THB. Subcultures in THB were subsequently grown to exponential phase (OD600˜0.3; i.e. 5×10^5 cfu/ml) at 37° C. Cell cultures were then exposed to different concentrations of antibiotics (Penicillin G, Ampicillin, Cefozolin or Vancomycin). […] Cell cultures were dispersed every 18 h before OD600 was measured to determine the lowest concentration of antibiotic with 90% growth inhibition (MIC90). Antibiotic treated cells (8 μl) from each well were re-suspended into PBS (100 μl) and plated (54 μl) on TS agar plates and allowed to grow for an additional 24 h at 37° C. Cell count was performed to determine the lowest concentration of antibiotic with 90% killing of original inoculums (MBC90). (III) Penicillin Killing and Regrowth Tolerance Assay by Microbroth Dilution. Three GBS laboratory strains (i.e., A909, NEM316, and O90R) were cultured overnight for 18 h at 37° C. in THB. Subcultures in THB were subsequently grown to exponential phase (OD600˜0.3) at 37° C. Cell cultures were then exposed to different concentrations of Penicillin G (Sigma, St. Louis, Mo.). […] Cell cultures were dispersed. A 1:20 dilution of cells was re-plated into new wells containing fresh THB with 500 U Penase (to degrade residual penicillin). Cell cultures were allowed to re-grow for an additional 24 h at 37° C. before the OD600 was measured. (IV) Measuring Cell Viability by Determining ATP Concentration. GBS strains were cultured for 18 h at 37° C. in THB. These cells were inoculated into fresh THB and subsequently allowed to grow to exponential phase (OD600 0.25-0.3) at 37° C. One ml of each culture was centrifuged at 5,000×g for 4 min. The cell pellet was re-suspended in ATP-free water. Cellular ATP was extracted using trichloroacetic acid (TCA) (5%) for 2 min and subsequently neutralized with Tris-EDTA-0.1M NaOAc, pH 7.75 to 10×TCA volume. The initial (in.) cellular ATP concentration ([ATP]) was measured using the ENLITEN (Promega) luciferase based reaction kit. THB cultures were then treated with 100×MIC90 Penicillin G for 22 h. The experimental (exp.) cellular ATP was extracted and the concentration was measured as stated above. Based on the calculations ([ATP] exp.)/([ATP] in./O.D. in.), differences in viability were equated with the change in [ATP]. (V) Measuring Penicillin Induced Lysis. Three GBS laboratory strains (A909, NEM316, and O90R) were cultured for 18 h at 37° C. in THB. […]
smiles,measurement,setting,value
CC1(C)S[C@@H]2[C@H](NC(=O)Cc3ccccc3)C(=O)N2[C@H]1C(=O)O [Penicillin G],"100xMIC, regrowth O.D.600",GBS strain 47 (III),−− (“−−” indicates an O.D.600 of 0.001 to 0.099)
same,"300xMIC, regrowth O.D.600",GBS strain 47 (III),−− (“−−” indicates an O.D.600 of 0.001 to 0.099)
same,"10xMIC, regrowth O.D.600",GBS strain 60 (NT),+ (“+” indicates an O.D.600 of 0.100 to 0.250)
same,"30xMIC, regrowth O.D.600",GBS strain 60 (NT),++ (“++” indicates an O.D.600 of 0.251 to 0.750)
same,"100xMIC, regrowth O.D.600",GBS strain 60 (NT),+ (“+” indicates an O.D.600 of 0.100 to 0.250)
same,"300xMIC, regrowth O.D.600",GBS strain 60 (NT),+ (“+” indicates an O.D.600 of 0.100 to 0.250)
same,"10xMIC, regrowth O.D.600",GBS strain 68 (III),+ (“+” indicates an O.D.600 of 0.100 to 0.250)
same,"30xMIC, regrowth O.D.600",GBS strain 68 (III),−− (“−−” indicates an O.D.600 of 0.001 to 0.099)
same,"100xMIC, regrowth O.D.600",GBS strain 68 (III),+ (“+” indicates an O.D.600 of 0.100 to 0.250)
same,"300xMIC, regrowth O.D.600",GBS strain 68 (III),+ (“+” indicates an O.D.600 of 0.100 to 0.250)
same,"10xMIC, regrowth O.D.600",GBS strain 71 (III),−− (“−−” indicates an O.D.600 of 0.001 to 0.099)
same,"30xMIC, regrowth O.D.600",GBS strain 71 (III),−− (“−−” indicates an O.D.600 of 0.001 to 0.099)
same,"100xMIC, regrowth O.D.600",GBS strain 71 (III),−− (“−−” indicates an O.D.600 of 0.001 to 0.099)
same,"300xMIC, regrowth O.D.600",GBS strain 71 (III),−− (“−−” indicates an O.D.600 of 0.001 to 0.099)
same,"10xMIC, regrowth O.D.600",GBS strain 90 (Ib),−− (“−−” indicates an O.D.600 of 0.001 to 0.099)
same,"30xMIC, regrowth O.D.600",GBS strain 90 (Ib),−− (“−−” indicates an O.D.600 of 0.001 to 0.099)
same,"100xMIC, regrowth O.D.600",GBS strain 90 (Ib),−− (“−−” indicates an O.D.600 of 0.001 to 0.099)
same,"300xMIC, regrowth O.D.600",GBS strain 90 (Ib),−− (“−−” indicates an O.D.600 of 0.001 to 0.099)
same,"10xMIC, regrowth O.D.600",GBS strain 91 (III),−− (“−−” indicates an O.D.600 of 0.001 to 0.099)
same,"30xMIC, regrowth O.D.600",GBS strain 91 (III),−− (“−−” indicates an O.D.600 of 0.001 to 0.099)
same,"100xMIC, regrowth O.D.600",GBS strain 91 (III),−− (“−−” indicates an O.D.600 of 0.001 to 0.099)
same,"300xMIC, regrowth O.D.600",GBS strain 91 (III),−− (“−−” indicates an O.D.600 of 0.001 to 0.099)
same,"10xMIC, regrowth O.D.600",GBS strain 93 (Ib),−− (“−−” indicates an O.D.600 of 0.001 to 0.099)
same,"30xMIC, regrowth O.D.600",GBS strain 93 (Ib),−− (“−−” indicates an O.D.600 of 0.001 to 0.099)
same,"100xMIC, regrowth O.D.600",GBS strain 93 (Ib),−− (“−−” indicates an O.D.600 of 0.001 to 0.099)
same,"300xMIC, regrowth O.D.600",GBS strain 93 (Ib),−− (“−−” indicates an O.D.600 of 0.001 to 0.099)
same,"10xMIC, regrowth O.D.600",GBS strain 97 (V),−− (“−−” indicates an O.D.600 of 0.001 to 0.099)
same,"30xMIC, regrowth O.D.600",GBS strain 97 (V),++ (“++” indicates an O.D.600 of 0.251 to 0.750)
same,"100xMIC, regrowth O.D.600",GBS strain 97 (V),++ (“++” indicates an O.D.600 of 0.251 to 0.750)
same,"300xMIC, regrowth O.D.600",GBS strain 97 (V),++ (“++” indicates an O.D.600 of 0.251 to 0.750)
same,"10xMIC, regrowth O.D.600",GBS strain 101 (NT),−− (“−−” indicates an O.D.600 of 0.001 to 0.099)
same,"30xMIC, regrowth O.D.600",GBS strain 101 (NT),−− (“−−” indicates an O.D.600 of 0.001 to 0.099)
same,"100xMIC, regrowth O.D.600",GBS strain 101 (NT),−− (“−−” indicates an O.D.600 of 0.001 to 0.099)
same,"300xMIC, regrowth O.D.600",GBS strain 101 (NT),−− (“−−” indicates an O.D.600 of 0.001 to 0.099)
same,"10xMIC, regrowth O.D.600",GBS strain 117 (Ia),+ (“+” indicates an O.D.600 of 0.100 to 0.250)
same,"30xMIC, regrowth O.D.600",GBS strain 117 (Ia),+ (“+” indicates an O.D.600 of 0.100 to 0.250)
same,"100xMIC, regrowth O.D.600",GBS strain 117 (Ia),+ (“+” indicates an O.D.600 of 0.100 to 0.250)
same,"300xMIC, regrowth O.D.600",GBS strain 117 (Ia),+ (“+” indicates an O.D.600 of 0.100 to 0.250)
same,"10xMIC, regrowth O.D.600",GBS strain 122 (III),−− (“−−” indicates an O.D.600 of 0.001 to 0.099)
same,"30xMIC, regrowth O.D.600",GBS strain 122 (III),−− (“−−” indicates an O.D.600 of 0.001 to 0.099)
same,"100xMIC, regrowth O.D.600",GBS strain 122 (III),−− (“−−” indicates an O.D.600 of 0.001 to 0.099)
same,"300xMIC, regrowth O.D.600",GBS strain 122 (III),−− (“−−” indicates an O.D.600 of 0.001 to 0.099)
same,"10xMIC, regrowth O.D.600",GBS strain 127 (Ia),−− (“−−” indicates an O.D.600 of 0.001 to 0.099)
same,"30xMIC, regrowth O.D.600",GBS strain 127 (Ia),++ (“++” indicates an O.D.600 of 0.251 to 0.750)
same,"100xMIC, regrowth O.D.600",GBS strain 127 (Ia),++ (“++” indicates an O.D.600 of 0.251 to 0.750)
same,"300xMIC, regrowth O.D.600",GBS strain 127 (Ia),++ (“++” indicates an O.D.600 of 0.251 to 0.750)
same,"10xMIC, regrowth O.D.600",GBS strain 129 (V),−− (“−−” indicates an O.D.600 of 0.001 to 0.099)
same,"30xMIC, regrowth O.D.600",GBS strain 129 (V),−− (“−−” indicates an O.D.600 of 0.001 to 0.099)
same,"100xMIC, regrowth O.D.600",GBS strain 129 (V),−− (“−−” indicates an O.D.600 of 0.001 to 0.099)
same,"300xMIC, regrowth O.D.600",GBS strain 129 (V),−− (“−−” indicates an O.D.600 of 0.001 to 0.099)
same,"10xMIC, regrowth O.D.600",GBS strain 131 (V),−− (“−−” indicates an O.D.600 of 0.001 to 0.099)
same,"30xMIC, regrowth O.D.600",GBS strain 131 (V),−− (“−−” indicates an O.D.600 of 0.001 to 0.099)
same,"100xMIC, regrowth O.D.600",GBS strain 131 (V),−− (“−−” indicates an O.D.600 of 0.001 to 0.099)
same,"300xMIC, regrowth O.D.600",GBS strain 131 (V),−− (“−−” indicates an O.D.600 of 0.001 to 0.099)
same,"10xMIC, regrowth O.D.600",GBS strain 156 (Ia),−− (“−−” indicates an O.D.600 of 0.001 to 0.099)
same,"30xMIC, regrowth O.D.600",GBS strain 156 (Ia),−− (“−−” indicates an O.D.600 of 0.001 to 0.099)
same,"100xMIC, regrowth O.D.600",GBS strain 156 (Ia),−− (“−−” indicates an O.D.600 of 0.001 to 0.099)
same,"300xMIC, regrowth O.D.600",GBS strain 156 (Ia),++ (“++” indicates an O.D.600 of 0.251 to 0.750)
same,"10xMIC, regrowth O.D.600",GBS strain 172 (NT),−− (“−−” indicates an O.D.600 of 0.001 to 0.099)
